Laboratory results taken from US20250325676A1, “CAMPTOTHECIN PRODRUG AND PHARMACEUTICAL COMPOSITION THEREOF” (TIANJIN HEMAY ONCOLOGY PHARMACEUTICAL CO., LTD, priority 2022, published 2025).
Read-outs that look alike come from different tables or passages of the source.

Columns and labels:
[1] = test system: BEL-7404; test: In vitro inhibition of human tumor cells, BEL-7404, SRB method
Experimental: (§6) 1.1.2 Cell culture method: Cells were cultured in complete medium, 37° C., 5% CO2, saturated humidity to log growth phase (adherent cells generally attended to complete fusion), and cells were collected for subsequent experiments (adherent cells were first digested with trypsin/ethylene diamine tetraacetic acid (EDTA) to remove adherent).
(§7) 1.1.3 96-well cell culture plates (hereinafter referred to as 96-well plates) were inoculated with a certain number of cells (see Table 1 for details). The cells were allowed to adhere overnight. […] Finally, the total amount of cell protein in the assay wells was determined by the SRB method, or the cell viability was determined by the MTT method:
(§8) The culture medium was aspirated from the wells and the cells were fixed for 1 hour or more by adding 10% trichloroacetic acid. Trichloroacetic acid was removed. The resultant was washed with H2O and stained with 0.4% SRB for 15 to 30 minutes. Excess SRB was removed. The resultant was washed with 1% acetic acid. The protein-bound SRB was dissolved by adding 10 mM of 100 μl Tris (trishydroxymethylaminomethane). Tests were carried out at the wavelength of 570 nm.
(§9) 1.1.4 dilution and addition of β-glucuronidase: 1 to 2 mg of β-glucuronidase was weighed and dissolved in PBS to give a 2 mg/ml of stock solution. […] 80 μl of enzyme working solution was added to the enzyme-containing assay wells. The amount of β-glucuronidase was 1 μg/wells. No enzyme-containing assay wells were added to the 80 μl of complete medium.
(§10) The assay wells were charged with 20 μl of 10× compound working solution. The final volume was 200 μl per well. The DMSO concentration was 0.1%.
(§11) 1.1.6 Compound inhibition activity calculation: The test included a compound test group, a compound-free positive solvent control group (PC) and a compound-free negative solvent control group (NC). […] The average inhibition rate and the standard deviation (SD) were obtained from the repeated test wells. The average inhibition rate was plotted on the basis of the compound concentration as an abscissa and distributed in the form of logarithms. The curve was fitted to the Logistic 4 parameter equation. […] The test was generally repeated to obtain 3 valid results.

[2] = test system: HCT116; test: In vitro inhibition of human tumor cells, HCT116, MTT method; assay type: cell-based
Experimental: (§1) The cells were allowed to adhere overnight.
(§2) Adherent cells: Culture medium was aspirated and 100 μl/wells of basal culture (generally refers to medium without fetal bovine serum (FBS) and other additives) containing 0.5 mg/ml MTT were added. The cells were cultured for 3 hours. MTT-containing basal medium was aspirated and 100 μl/wells of DMSO were added to dissolve formazan.
(§3) Unstably adherent cells: Unstably adherent cells were directly added to the MTT solution to achieve the concentration of 0.5 mg/ml and cultured for 3 hours. The ternary solution in an equal volume to the system was added to the system to dissolve the formazan.
(§4) The DMSO concentration was 0.1%.

[3] = test system: human colon cancer SW620; conditions: 30 mg/kg i.v. qw × 2, SW620 model
Experimental: An allogeneic transplantation model of human colon cancer SW620 was established in nude mice subcutaneously using a tumor block inoculation method. When the tumor volume of the allogeneic transplantation was about 100 to 300 mm^3 and remained stable, the experimental animals were randomly divided into groups according to the size of the tumor volume (day 0) by using a remainder method. The tumor volume was measured 2 to 3 times a week. At the end of the dosage period, the experimental animals were sacrificed. The subcutaneous tumors were peeled and weighed. The anti-tumor activity of the drug against the model was evaluated based on tumor volume and tumor weight-related data.
(§12) The calculation formula of the tumor volume was: Volume=0.5×long diameter×short diameter×short diameter.
(§13) V0 was the resulting tumor volume measured at the time of dosing in groups (i.e., d0) and Vt was the tumor volume at each measurement.
TRTV was the average value of RTV of the subject, and CRTV was the average RTV of the model control group.
(§14) Wn: average body weight of each group of experimental animals on day n, and W0: average body weight of each group of experimental animals on day 0.

[4] = test system: LoVo; test: In vitro inhibition of human tumor cells, LoVo, SRB method; assay type: cell-based
From the text: as §1
(§5) Trichloroacetic acid was removed. […] Excess SRB was removed.
as §4

[5] = test system: MDA-MB-468; test: In vitro inhibition of human tumor cells, MDA-MB-468, SRB method
Experimental: as §6, §7, §8, §9, §10, §11

[6] = test system: A375; test: In vitro inhibition of human tumor cells, A375, SRB method
Experimental: as §6, §7, §8, §9, §10, §11

[7] = test system: NCI-H460; test: In vitro inhibition of human tumor cells, NCI-H460, MTT method; assay type: cell-based
Experimental: as §1, §2, §3, §4

[8] = test system: human colon cancer LoVo; conditions: 30 mg/kg i.v. qw × 2, LoVo model
Experimental: An allogeneic transplantation model of human colon cancer LoVo was established in nude mice subcutaneously using a tumor block inoculation method. When the tumor volume of the allogeneic transplantation was about 100 to 300 mm^3 and kept stable, the experimental animals were randomly divided into groups according to the tumor volume (day 0) by using a remainder method. The tumor volume was measured 2 to 3 times a week. At the end of the dosage period, the experimental animals were sacrificed. The subcutaneous tumors were peeled and weighed. The anti-tumor activity of the drug against the model was evaluated based on tumor volume and tumor weight-related data.
as §12
V0 was the resulting tumor volume measured at the time of dosing in groups (i.e., d0) and Vt is the tumor volume at each measurement.
(§15) T was the subject and C was the model control.
TRTV was the average RTV of the subject and CRTV was the average RTV of the model control group.
as §14

[9] = test system: SW620; test: In vitro inhibition of human tumor cells, SW620, SRB method; assay type: cell-based
From the text: as §1, §5, §4

[10] = test system: Fadu; test: In vitro inhibition of human tumor cells, Fadu, MTT method; assay type: cell-based
[11] = test system: BxPC-3; test: In vitro inhibition of human tumor cells, BxPC-3, MTT method; assay type: cell-based
Experimental: as §1, §2, §3, §4

[12] = test system: 22RV1; test: In vitro inhibition of human tumor cells, 22RV1, SRB method
Experimental: as §6, §7, §8, §9, §10, §11

[13] = test system: human gastric cancer NCI-N87; test: Growth of human gastric cancer NCI-N87 in allogeneic transplantation model; assay type: in vivo, nude mice
Experimental: The tumor volume was measured 2 to 3 times per week. […] The subcutaneous tumors were peeled and weighed.
The calculation formula of the tumor volume: Volume=0.5×long diameter×short diameter×short diameter.

[14] = test system: human pancreatic cancer BxPC-3; test: Growth of human pancreatic cancer BxPC-3 in allogeneic transplantation model; assay type: in vivo, nude mice; conditions: 25 mg/kg i.v. qw × 2, BxPC-3 model
Experimental: (§16) When the tumor volume of the allogeneic transplantation was about 100 to 300 mm^3 and remained stable, the experimental animals were randomly divided into groups according to the size of the tumor volume (day 0) by using a remainder method. The tumor volume was measured 2 to 3 times a week. At the end of the dosage period, the experimental animals were sacrificed. The subcutaneous tumors were peeled and weighed. The anti-tumor activity of the drug against the model was evaluated based on tumor volume and tumor weight-related data.
as §12, §13, §15
(§17) TRTV was the average RTV of the subject, and CRTV was the average RTV of the model control group.
as §14
(§18) In the large tumor efficacy test after the second grouping of the G5 group, since the number of samples in each group of G6.1 and G6.4 was less than three, the relevant data of the large tumor efficacy test were statistically analyzed among groups using the T-Test method.

[15] = test system: human colon cancer HCT116; test: Growth of human colon cancer HCT116 in allogeneic transplantation model; assay type: in vivo, nude mice; conditions: for T/C (%) / Tumor inhibition rate (%): 10 mg/kg i.v. qw × 2
Experimental: as §16, §12, §13, §17, §14

[16] = test system: human colon cancer HCT116; conditions: 30 mg/kg i.v. qw × 2
From the text: When the tumor volume was more than 600 mm^3 and stable growth was maintained, the experimental animals were randomly divided by the remainder method and administered according to the size of the tumor volume. […] The subcutaneous tumors were stripped and weighed.
T was the subject and C is the model control.
Tumor volume growth was observed on a regular basis after completion of dosing.

[17] = test system: NCI-N87; test: In vitro inhibition of human tumor cells, NCI-N87, MTT method; assay type: cell-based
[18] = test system: human small cell lung cancer NCI-H446; conditions: 20 mg/kg i.v. qw × 2, NCI-H446 model
Experimental: An allogeneic transplantation model of human small cell lung cancer NCI-H446 was established in nude mice subcutaneously using a tumor block inoculation method. When the tumor volume of the allogeneic transplantation was about 100 to 300 mm^3 and remained stable, the experimental animals were randomly divided into groups according to the size of the tumor volume (day 0, i.e., d0) using a remainder method. The tumor volume was measured 2 to 3 times a week. At the end of the dosage period, the experimental animals were sacrificed. The subcutaneous tumors were peeled and weighed. The anti-tumor activity of the drug against the model was evaluated based on tumor volume and tumor weight-related data.
as §12, §13, §15, §17, §14

[19] = test system: human pancreatic cancer BxPC-3; conditions: 30 mg/kg i.v. qw × 2
Experimental: as §16, §12, §13, §15, §17, §14, §18

[20] = No βGU (direct effects of compound on cells)
[21] = HCT116 large tumor after irinotecan
[22] = BxPC-3 large tumors after irinotecan

4-amino-6-((E)-(4′-(6-(4-((2-(((S)-4,11-diethyl-4-hydroxy-3,14-dioxy-3,4,12,14-tetrahydro-1H-pyrano[3′,4′:6,7]indolazo[1,2-b]quinolin-9-yl)oxy)methyl)-5-(((2S,3R,4S,5 S,6S)-3,4,5-trihydroxy-6-(methoxycarbonyl)tetrahydro-2H-pyran-2-yl)oxy)phenoxy)methyl)-1H-1,2,3-triazol-1-yl)hexanamido)-3,3′-dimethyl-[1,1′-biphenyl]-4-yl)diazenyl)-5-hydroxynaphthalene-1,3-disulfonate disodium [Example 21]
IC50 ([1]; Adding βGU): 28 nM
IC50 ([1]; No βGU): 439 nM
IC50 ([2]; Adding βGU (β-glucuronidase)): 35 nM
IC50 [2, 20]: 244 nM
T/C (%) [3]: 0.5%
Tumor inhibition rate (%) [3]: 99.8%
IC50 ([4]; Adding βGU): 45 nM
IC50 ([4]; No βGU): 720 nM
IC50 ([5]; Adding βGU): 42 nM
IC50 ([5]; No βGU): 177 nM
IC50 ([6]; Adding βGU): 8.8 nM
IC50 ([6]; No βGU): 556 nM
IC50 ([7]; Adding βGU): 80 nM
IC50 ([7]; No βGU): 770 nM
T/C (%) [8]: 9.8%
Tumor inhibition rate (%) [8]: 93.1%
IC50 ([9]; Adding βGU): 23 nM
IC50 ([9]; No βGU): 764 nM
IC50 ([10]; Adding βGU): 9.8 nM
IC50 ([10]; No βGU): 298 nM
IC50 ([11]; Adding βGU): 62 nM
IC50 ([11]; No βGU): 688 nM
IC50 ([12]; Adding βGU): 14.5 nM
IC50 ([12]; No βGU): 399 nM

CCc1c2c(nc3ccc(OCc4ccc(O[C@@H]5O[C@H](C(=O)[O-])[C@@H](O)[C@H](O)[C@H]5O)cc4OCc4cn(CCCCCC(=O)Nc5ccc(-c6ccc(/N=N/c7ccc8c(S(=O)(=O)[O-])cc(S(=O)(=O)[O-])c(N)c8c7O)c(C)c6)cc5C)nn4)cc13)-c1cc3c(c(=O)n1C2)COC(=O)[C@]3(O)CC.[Na+].[Na+].[Na+] [Example 7, (2S,3S,4S,5R,6S)-6-(3-((1-(6-((4′-((E)-(8-amino-1-hydroxy-5,7-disulfonicnaphthalen-2-yl)diazenyl)-3,3′-dimethyl-[1,1′-biphenyl]-4-yl)amino)-6-oxohexyl)-1H-1,2,3-triazol-4-yl)methoxy)-4-((((S)-4,11-diethyl-4-hydroxy-3,14-dioxy-3,4,12,14-tetrahydro-1H-pyrano[3′,4′:6,7]indolazino[1,2-b]quinolin-9-yl)oxy)methyl)phenoxy)-3,4,5-trihydroxytetrahydro-2H-pyran-2-carboxylate trisodium]
Relative volume RTV (X ± S.D.) ([13]; 20 mg/kg i.v. qw × 2): 0.69 ± 0.15
T/C (%) ([13]; 20 mg/kg i.v. qw × 2): 13.6%
Tumor inhibition rate (%) ([13]; 20 mg/kg i.v. qw × 2): 94.2%
Tumor weight (g, X ± S.D.) ([13]; 20 mg/kg i.v. qw × 2): 0.069 ± 0.009 g
Final body weight change (%) ([13]; 20 mg/kg i.v. qw × 2, nude mouse): 13.6%
IC50 ([1]; Adding βGU): 33 nM
IC50 ([1]; No βGU): 514 nM
IC50 ([2]; Adding βGU (β-glucuronidase)): 3.9 nM
IC50 [2, 20]: 147 nM
Relative volume RTV (X ± S.D.) [14]: 0.23 ± 0.08
T/C (%) [14]: 4.9%
Tumor inhibition rate (%) [14]: 96.7%
Tumor weight (g, X ± S.D.) [14]: 0.055 ± 0.037 g
Final body weight change (%) ([14]; nude mouse): 2.9%
T/C (%) [15]: 13.3%
Tumor inhibition rate (%) [15]: 90.0%
Final body weight change (%) ([15]; 10 mg/kg i.v. qw × 2, nude mouse): −12.8%
T/C (%) [3]: 0.6%
Tumor inhibition rate (%) [3]: 99.7%
Final body weight change (%) ([3]; nude mouse): −4.6%
IC50 ([4]; Adding βGU): 19 nM
IC50 ([4]; No βGU): 253 nM
Relative volume RTV (X ± S.D.) [16, 21]: 1.10 ± 0.16
T/C (%) [16, 21]: 29.6%
Tumor inhibition rate (%) [16, 21]: 73.6%
Tumor weight (g, X ± S.D.) [16, 21]: 0.720 ± 0.492 g
Final body weight change (%) ([16]; HCT116 tumors more than 600 mm^3 after irinotecan 100 mg/kg qw×2): −10.7%
IC50 ([5]; Adding βGU): 6.8 nM
IC50 ([5]; No βGU): 70 nM
IC50 ([17]; Adding βGU): 24 nM
IC50 ([17]; No βGU): 1140 nM
IC50 ([6]; Adding βGU): 10 nM
IC50 ([6]; No βGU): 600 nM
Relative volume RTV (X ± S.D.) [18]: 0.11 ± 0.02
T/C (%) [18]: 1.5%
Tumor inhibition rate (%) [18]: 98.9%
Tumor weight (g, X ± S.D.) [18]: 0.011 ± 0.005 g
Final body weight change (%) ([18]; nude mouse): 4.1%
IC50 ([7]; Adding βGU): 14 nM
IC50 ([7]; No βGU): 219 nM
T/C (%) [8]: 12.3%
Tumor inhibition rate (%) [8]: 91.1%
Final body weight change (%) ([8]; nude mouse): 0.0%
IC50 ([9]; Adding βGU): 6.9 nM
IC50 ([9]; No βGU): 306 nM
Relative volume RTV (X ± S.D.) [19, 22]: 0.28 ± 0.03
T/C (%) [19, 22]: 7.7%
Tumor inhibition rate (%) [19, 22]: 94.2%
Tumor weight (g, X ± S.D.) [19, 22]: 0.174 ± 0.164 g
Final body weight change (%) ([19]; BxPC-3 tumors more than 600 mm^3 after irinotecan 100 mg/kg i.p. qw × 2): −0.3%
IC50 ([10]; Adding βGU): 8.5 nM
IC50 ([10]; No βGU): 242 nM
IC50 ([11]; Adding βGU): 27 nM
IC50 ([11]; No βGU): 1110 nM
IC50 ([12]; Adding βGU): 5.2 nM
IC50 ([12]; No βGU): 147 nM

(2S,3S,4S,5R,6S)-6-(3-((1-(2-(2-(2-((4′-((E)-(8-amino-1-hydroxy-5,7-disulfononaphthalen-2-yl)diazenyl)-3,3′-dimethoxy-[1,1′-biphenyl]-4-yl)amino)-2-oxoethoxy)ethoxy)ethyl)-1H-1,2,3-triazol-4-yl)methoxy)-4-(((S)-4,11-diethyl-4-hydroxy-3,14-dioxo-3,4,12,14-tetrahydro-1H-pyrano[3′,4′:6,7]indolazino[1,2-b]quinolin-9-yl)oxy)methyl)phenoxy)-3,4,5-trihydroxytetrahydro-2H-pyran-2-carboxylate trisodium [Example 61]
IC50 ([1]; Adding βGU): 40 nM
IC50 ([1]; No βGU): 565 nM
IC50 ([2]; Adding βGU (β-glucuronidase)): 5.4 nM
IC50 [2, 20]: 220 nM
T/C (%) [15]: 27.2%
Tumor inhibition rate (%) [15]: 76.8%
IC50 ([4]; Adding βGU): 5.9 nM
IC50 ([4]; No βGU): 244 nM
IC50 ([5]; Adding βGU): 6.5 nM
IC50 ([5]; No βGU): 212 nM
IC50 ([17]; Adding βGU): 33 nM
IC50 ([17]; No βGU): 395 nM
IC50 ([6]; Adding βGU): 12.5 nM
IC50 ([6]; No βGU): 782 nM
Relative volume RTV (X ± S.D.) [18]: 0.25 ± 0.25
T/C (%) [18]: 3.7%
Tumor inhibition rate (%) [18]: 96.0%
Tumor weight (g, X ± S.D.) [18]: 0.039 ± 0.049 g
IC50 ([7]; Adding βGU): 8.6 nM
IC50 ([7]; No βGU): 518 nM
IC50 ([9]; Adding βGU): 2.6 nM
IC50 ([9]; No βGU): 283 nM
IC50 ([10]; Adding βGU): 15 nM
IC50 ([10]; No βGU): 498 nM
IC50 ([11]; Adding βGU): 7.1 nM
IC50 ([11]; No βGU): 915 nM
IC50 ([12]; Adding βGU): 8.4 nM
IC50 ([12]; No βGU): 225 nM

(2S,3S,4S,5R,6S)-6-(3-((1-(6-((4′-((E)-(8-amino-1-hydroxy-5,7-disulfonicnaphthalen-2-yl)diazenyl)-[1,1′-biphenyl]-4-yl)amino)-6-oxohexyl)-1H-1,2,3-triazol-4-yl)methoxy)-4-((((S)-4,11-diethyl-4-hydroxy-3,14-dioxo-3,4,12,14-tetrahydro-1H-pyrano[3′,4′:6,7]indolazino[1,2-b]quinolin-9-yl)oxy)methyl)phenoxy)-3,4,5-trihydroxytetrahydro-2H-pyran-2-carboxylate trisodium [Example 78]
IC50 ([1]; Adding βGU): 35 nM
IC50 ([1]; No βGU): 458 nM
IC50 ([2]; Adding βGU (β-glucuronidase)): 2.4 nM
IC50 [2, 20]: 42 nM
T/C (%) [3]: 0.6%
Tumor inhibition rate (%) [3]: 99.4%
IC50 ([4]; Adding βGU): 11 nM
IC50 ([4]; No βGU): 301 nM
IC50 ([5]; Adding βGU): 3.3 nM
IC50 ([5]; No βGU): 28 nM
IC50 ([17]; Adding βGU): 26 nM
IC50 ([17]; No βGU): 170 nM
IC50 ([6]; Adding βGU): 22 nM
IC50 ([6]; No βGU): 984 nM
IC50 ([7]; Adding βGU): 9.6 nM
IC50 ([7]; No βGU): 530 nM
T/C (%) [8]: 15.8%
Tumor inhibition rate (%) [8]: 88.2%
IC50 ([9]; Adding βGU): 7.3 nM
IC50 ([9]; No βGU): 329 nM
IC50 ([10]; Adding βGU): 6.9 nM
IC50 ([10]; No βGU): 346 nM
IC50 ([11]; Adding βGU): 13 nM
IC50 ([11]; No βGU): 610 nM
IC50 ([12]; Adding βGU): 7.6 nM
IC50 ([12]; No βGU): 267 nM
